Source: patent US8933107B2, “Pesticide thiazolyloxy substituted phenylamidine derivatives” (Bayer Cropscience AG, priority 2005, dated 2015)

Key:
[1] = test system: Puccinia recondita f. Sp. tritici; assay: In vivo preventive test on Puccinia recondita f. Sp. tritici (wheat brown rust); settings: topical, 240 h, 1000 ppm of active ingredient, evaluated 10 days after inoculation, read-out: efficacy
[2] = test system: Erysiphe graminis f. sp. hordei; assay: In vivo preventive test on Erysiphe gramini (powdery mildew on barley); settings: Blumeria graminis, 168 h, 1000 ppm of active ingredient, evaluated 7 days after inoculation, read-out: efficacy
Sphaerotheca fuliginea = assay: In vivo protective test on Sphaerotheca fuliginea (cucumbers); settings: Podosphaera fuliginea, 168 h, 100 ppm of active ingredient, evaluated 7 days after inoculation, read-out: efficacy
Podosphaera leucotricha = assay: In vivo protective test on Podosphaera leucotricha (apples); settings: topical, 240 h, 100 ppm of active ingredient, evaluated 10 days after inoculation, read-out: efficacy
Alternaria solani = assay: In vivo protective test on Alternaria solani (leaf spot of tomato); settings: 168 h, 500 ppm of active ingredient, evaluated 7 days after inoculation, read-out: efficacy
physchem = settings: reversed-phase HPLC column (C 18)

CCN(C)/C=N/c1cc(C)c(Oc2nc(Cl)c(Cl)s2)cc1C [Compound 1.1, N′-{4-[(4,5-dichloro-1,3-thiazol-2-yl)oxy]-2,5-dimethylphenyl}-N-ethyl-N-methylimidoformamide]
pest or weed control at 1000 ppm [1]: ≥ 70% | pest or weed control at 1000 ppm [2]: ≥ 70% | pest or weed control at 100 ppm (Sphaerotheca fuliginea): ≥ 70% | pest or weed control at 100 ppm (Podosphaera leucotricha): ≥ 70% | pest or weed control at 500 ppm (Alternaria solani): ≥ 70% | chromatographic logP (physchem): 2.12 | chromatographic logP (physchem; pH 2.3): 2.04

Cc1cc(Oc2nc(Cl)c(Cl)s2)c(C)cc1/N=C/N(C)C(C)C [Compound 1.3]
pest or weed control at 1000 ppm [1]: ≥ 70% | pest or weed control at 1000 ppm [2]: ≥ 70% | pest or weed control at 100 ppm (Sphaerotheca fuliginea): ≥ 70% | pest or weed control at 100 ppm (Podosphaera leucotricha): ≥ 70% | pest or weed control at 500 ppm (Alternaria solani): ≥ 70% | chromatographic logP (physchem): 2.18

CCN(C)/C=N/c1cc(C)c(Oc2nc(C(C)(C)C)c(Cl)s2)cc1C [Compound 1.4]
pest or weed control at 1000 ppm [1]: ≥ 70% | pest or weed control at 1000 ppm [2]: ≥ 70% | pest or weed control at 100 ppm (Sphaerotheca fuliginea): ≥ 70% | pest or weed control at 100 ppm (Podosphaera leucotricha): ≥ 70% | pest or weed control at 500 ppm (Alternaria solani): ≥ 70% | chromatographic logP (physchem): 2.76

CCN(C)/C=N/c1cc(C)c(Oc2nc(C(F)(F)F)c(Cl)s2)cc1C [Compound 1.5]
pest or weed control at 1000 ppm [1]: ≥ 70% | pest or weed control at 1000 ppm [2]: ≥ 70% | pest or weed control at 100 ppm (Sphaerotheca fuliginea): ≥ 70% | pest or weed control at 100 ppm (Podosphaera leucotricha): ≥ 70% | pest or weed control at 500 ppm (Alternaria solani): ≥ 70% | chromatographic logP (physchem): 2.15

CCN(C)/C=N/c1cc(C)c(Oc2nc(Cl)c(Br)s2)cc1C [Compound 1.6]
pest or weed control at 1000 ppm [1]: ≥ 70% | pest or weed control at 1000 ppm [2]: ≥ 70% | pest or weed control at 100 ppm (Sphaerotheca fuliginea): ≥ 70% | pest or weed control at 100 ppm (Podosphaera leucotricha): ≥ 70% | chromatographic logP (physchem): 2

Cc1cc(Oc2nc(C(C)C)c(Cl)s2)c(C)cc1/N=C/N(C)C(C)C [Compound 1.9]
pest or weed control at 1000 ppm [1]: ≥ 70% | pest or weed control at 1000 ppm [2]: ≥ 70% | pest or weed control at 100 ppm (Sphaerotheca fuliginea): ≥ 70% | pest or weed control at 100 ppm (Podosphaera leucotricha): ≥ 70% | pest or weed control at 500 ppm (Alternaria solani): ≥ 70% | chromatographic logP (physchem): 2.57

Cc1cc(Oc2nc(C(F)(F)F)c(Cl)s2)c(C)cc1/N=C/N(C)C(C)C [Compound 1.10]
pest or weed control at 1000 ppm [1]: ≥ 70% | pest or weed control at 1000 ppm [2]: ≥ 70% | pest or weed control at 100 ppm (Sphaerotheca fuliginea): ≥ 70% | pest or weed control at 100 ppm (Podosphaera leucotricha): ≥ 70% | chromatographic logP (physchem): 2.29

CCN(C)/C=N/c1cc(C)c(Oc2nc(C)c(Cl)s2)cc1C [Compound 1.12]
pest or weed control at 1000 ppm [1]: ≥ 70% | pest or weed control at 1000 ppm [2]: ≥ 70% | pest or weed control at 100 ppm (Sphaerotheca fuliginea): ≥ 70% | pest or weed control at 100 ppm (Podosphaera leucotricha): ≥ 70% | pest or weed control at 500 ppm (Alternaria solani): ≥ 70% | chromatographic logP (physchem): 1.98

Cc1cc(Oc2nc(C)c(Cl)s2)c(C)cc1/N=C/N(C)C(C)C [Compound 1.13]
pest or weed control at 1000 ppm [1]: ≥ 70% | pest or weed control at 1000 ppm [2]: ≥ 70% | pest or weed control at 500 ppm (Alternaria solani): ≥ 70% | chromatographic logP (physchem): 2.14

Cc1cc(Oc2nc(Cl)cs2)c(C)cc1/N=C/N(C)C(C)C [Compound 1.14]
pest or weed control at 500 ppm (Alternaria solani): ≥ 70% | chromatographic logP (physchem): 1.7

CCN(C)/C=N/c1cc(C)c(Oc2nc(Cl)c(C)s2)cc1C [Compound 1.17]
pest or weed control at 1000 ppm [1]: ≥ 70% | pest or weed control at 1000 ppm [2]: ≥ 70% | pest or weed control at 100 ppm (Podosphaera leucotricha): ≥ 70% | pest or weed control at 500 ppm (Alternaria solani): ≥ 70% | chromatographic logP (physchem): 1.8

CCN(C)/C=N/c1cc(C)c(Oc2nc(Cl)cs2)cc1C [Compound 1.18]
pest or weed control at 1000 ppm [1]: ≥ 70% | pest or weed control at 1000 ppm [2]: ≥ 70% | pest or weed control at 100 ppm (Sphaerotheca fuliginea): ≥ 70% | pest or weed control at 100 ppm (Podosphaera leucotricha): ≥ 70% | chromatographic logP (physchem): 1.6

CCN(C)/C=N/c1cc(C)c(Oc2nc(C(C)C)c(Cl)s2)cc1C [Compound 1.20]
pest or weed control at 1000 ppm [1]: ≥ 70% | pest or weed control at 1000 ppm [2]: ≥ 70% | pest or weed control at 500 ppm (Alternaria solani): ≥ 70% | chromatographic logP (physchem): 2.52

CCN(C)/C=N/c1cc(C)c(Oc2nc(C)c(C(C)=O)s2)cc1C [Compound 1.27]
pest or weed control at 500 ppm (Alternaria solani): ≥ 70% | chromatographic logP (physchem): 1.5

Cc1cc(Oc2nc(Cl)c(Cl)s2)ccc1/N=C/N(C)C(C)C [Compound 1.28]
pest or weed control at 1000 ppm [1]: ≥ 70% | pest or weed control at 1000 ppm [2]: ≥ 70% | chromatographic logP (physchem): 2.09

Cc1cc(Oc2nc(Cl)c(C)s2)c(C)cc1/N=C/N(C)C [Compound 1.31]
chromatographic logP (physchem): 1.69

CCN(C)/C=N/c1ccc(Oc2nc(C)c(C)s2)cc1C [Compound 1.33]
chromatographic logP (physchem): 1.65

Cc1cc(Oc2nc(C)c(C)s2)ccc1/N=C/N(C)C(C)C [Compound 1.34]
chromatographic logP (physchem): 1.66

CCCc1sc(Oc2cc(C)c(/N=C/N(C)C(C)C)cc2C)nc1C [Compound 1.35]
chromatographic logP (physchem): 2.29

CCCc1sc(Oc2cc(C)c(/N=C/N(C)CC)cc2C)nc1C [Compound 1.36]
chromatographic logP (physchem): 2.22

Cc1cc(Oc2nc(C)c(C)s2)c(C)cc1/N=C/N(C)C(C)C [Compound 1.37]
chromatographic logP (physchem): 1.98

CCN(C)/C=N/c1cc(C)c(Oc2nc(C)c(C)s2)cc1C [Compound 1.38]
chromatographic logP (physchem): 1.87

CCN(C)/C=N/c1ccc(Oc2nc(Cl)c(Cl)s2)cc1C [Compound 1.39]
chromatographic logP (physchem): 1.99

CCN(C)/C=N/c1cc(C)c(Oc2nc(C=O)c(Cl)s2)cc1C [Compound 1.42, N′-{4-[(5-chloro-4-formyl-1,3-thiazol-2-yl)oxy]-2,5-dimethylphenyl}-N-ethyl-N-methylimidoformamide]
chromatographic logP (physchem): 1.46 | chromatographic logP (physchem; pH 2.3): 1.51

CCN(C)C=Nc1cc(C)c(Oc2nc(C=NOC(C)(C)C)c(Cl)s2)cc1C [Compound 1.44, N′-[4-({4-[(tert-butoxyimino)methyl]-5-chloro-1,3-thiazol-2-yl}oxy)-2,5-dimethylphenyl]-N-ethyl-N-methylimidoformamide]
chromatographic logP (physchem): 2.65 | chromatographic logP (physchem; pH 2.3): 2.65

CCN(C)/C=N/c1cc(C)c(Oc2nc(-c3ccccc3)cs2)cc1C [Compound 1.60]
chromatographic logP (physchem): 2.18

Cc1cc(Oc2nc(-c3ccccc3)cs2)c(C)cc1/N=C/N(C)C(C)C [Compound 1.61]
chromatographic logP (physchem): 2.25

CCN(C)/C=N/c1cc(C)c(Oc2nc(Cl)c(C=O)s2)cc1C [Compound 1.62]
chromatographic logP (physchem): 1.68

Cc1cc(Oc2nc(C(C)(C)C)c(Cl)s2)c(C)cc1/N=C/N(C)C(C)C [Compound 1.64]
pest or weed control at 500 ppm (Alternaria solani): ≥ 70% | chromatographic logP (physchem): 2.79

CCN(C)/C=N/c1cc(C)c(Oc2nc(C(C)(C)C)c(Br)s2)cc1C [Compound 1.71]
pest or weed control at 1000 ppm [1]: ≥ 70% | pest or weed control at 100 ppm (Podosphaera leucotricha): ≥ 70% | pest or weed control at 500 ppm (Alternaria solani): ≥ 70% | chromatographic logP (physchem): 2.78

CCN(C)/C=N/c1cc(C)c(Oc2nc(C#N)c(Cl)s2)cc1C [Compound 1.72]
pest or weed control at 1000 ppm [1]: ≥ 70% | pest or weed control at 100 ppm (Podosphaera leucotricha): ≥ 70% | chromatographic logP (physchem): 1.74

CCN(C)/C=N/c1cc(C)c(Oc2nc(Cl)c(C(C)(C)C)s2)cc1C [Compound 1.73]
pest or weed control at 1000 ppm [1]: ≥ 70% | chromatographic logP (physchem): 2.87

CCN(C)/C=N/c1cc(C)c(Oc2ncc(C(C)(C)C)s2)cc1C [Compound 1.74]
pest or weed control at 1000 ppm [1]: ≥ 70% | pest or weed control at 100 ppm (Podosphaera leucotricha): ≥ 70% | pest or weed control at 500 ppm (Alternaria solani): ≥ 70% | chromatographic logP (physchem): 2.18

CCN(C)/C=N/c1cc(C)c(Oc2nc(C(C)(C)C)cs2)cc1C [Compound 1.75]
pest or weed control at 1000 ppm [1]: ≥ 70% | pest or weed control at 100 ppm (Podosphaera leucotricha): ≥ 70% | chromatographic logP (physchem): 2.26

Cc1cc(Oc2nc(C(C)C)ns2)ccc1/N=C/N(C)C(C)C [Compound 2.1]
chromatographic logP (physchem): 1.77

CCN(C)/C=N/c1ccc(Oc2nc(C(C)C)ns2)cc1C [Compound 2.2]
pest or weed control at 1000 ppm [1]: ≥ 70% | pest or weed control at 1000 ppm [2]: ≥ 70% | chromatographic logP (physchem): 1.57

Cc1cc(Oc2nc(C(C)C)ns2)c(C)cc1/N=C/N(C)C(C)C [Compound 2.4]
pest or weed control at 1000 ppm [1]: ≥ 70% | pest or weed control at 1000 ppm [2]: ≥ 70% | chromatographic logP (physchem): 1.89

CCN(C)/C=N/c1cc(C)c(Oc2nc(Cl)ns2)cc1C [Compound 2.5]
chromatographic logP (physchem): 1.56

Cc1cc(Oc2nc(Cl)ns2)c(C)cc1/N=C/N(C)C(C)C [Compound 2.6]
chromatographic logP (physchem): 1.67

CCN(C)/C=N/c1ccc(Oc2nc(C(C)(C)C)ns2)cc1C [Compound 2.7]
pest or weed control at 1000 ppm [1]: ≥ 70% | pest or weed control at 100 ppm (Podosphaera leucotricha): ≥ 70% | pest or weed control at 500 ppm (Alternaria solani): ≥ 70% | chromatographic logP (physchem): 2.04

Cc1cc(Oc2nnc(C(F)(F)F)s2)c(C)cc1/N=C/N(C)C(C)C [Compound 3.1]
pest or weed control at 1000 ppm [1]: ≥ 70% | pest or weed control at 1000 ppm [2]: ≥ 70% | chromatographic logP (physchem): 1.84

CCN(C)/C=N/c1cc(C)c(Oc2nnc(C(F)(F)F)s2)cc1C [Compound 3.2]
pest or weed control at 1000 ppm [1]: ≥ 70% | pest or weed control at 1000 ppm [2]: ≥ 70% | pest or weed control at 500 ppm (Alternaria solani): ≥ 70% | chromatographic logP (physchem): 1.78

CCN(C)/C=N/c1cc(C)c(Oc2nnc(-c3ccccc3)s2)cc1C [Compound 3.3]
chromatographic logP (physchem): 1.93

Cc1cc(Oc2nnc(-c3ccccc3)s2)c(C)cc1/N=C/N(C)C(C)C [Compound 3.6]
chromatographic logP (physchem): 2

CSc1nnc(Oc2cc(C)c(/N=C/N(C)C(C)C)cc2C)s1 [Compound 3.18]
chromatographic logP (physchem): 1.82

Cc1cc(Oc2nnc(C(C)C)s2)c(C)cc1/N=C/N(C)C(C)C [Compound 3.19]
chromatographic logP (physchem): 1.69

CCN(C)/C=N/c1cc(C)c(Oc2nnc(SC)s2)cc1C [Compound 3.21]
pest or weed control at 500 ppm (Alternaria solani): ≥ 70% | chromatographic logP (physchem): 1.69

CCN(C)/C=N/c1cc(C)c(Oc2nnc(C(C)C)s2)cc1C [Compound 3.22]
chromatographic logP (physchem): 1.61

Cc1cc(Oc2nc(Cl)c(Cl)s2)c(C)cc1N [II-1, 4-[(4,5-dichloro-1,3-thiazol-2-yl)oxy]-2,5-dimethylaniline]
chromatographic logP (physchem; pH 2.3): 3.4

CCN(C)/C=N/c1cc(C)c(O)cc1C [IX-a, N-ethyl-N′-(4-hydroxy-2,5-dimethylphenyl)-N-methylimidoformamide]
chromatographic logP (physchem; pH 2.3): 0.41
